From patent US10576102B2, “KOC1-derived peptide and vaccine including same” (ONCOTHERAPY SCIENCE, INC., priority 2014, dated 2020)

What was measured:
peptide-pulsed C1R-A33 = test: In vitro CTL induction, IFN-gamma ELISPOT assay (HLA-A*3303); format: cell-based, human; conditions: CTLs induced with peptide-pulsed DCs from HLA-A*3303-positive volunteers; day 21; vs peptide-pulsed C1R-A33, compared with unpulsed control
Experimental: C1R (C1R-A33) that stably expresses HLA-A*3303 was used as a stimulator cell. A cDNA encoding the open-reading frame of HLA-A*3303 was amplified by PCR and cloned into an expression vector. C1R cells were transfected with the expression vector, and then selected using G418 (Invitrogen) for two weeks. The G418-selected cells were seeded into wells containing G418-added culture medium in a 96-well plate, and further cultured for 30 days. The exogenous HLA-A*3303 expression in C1R cells was verified by flow cytometric analysis.
Monocyte-derived dendritic cells (DCs) were used as the antigen-presenting cell to induce a cytotoxic T lymphocyte (CTL) response against peptides presented on human leukocyte antigens (HLAs). As described in the other sections, DCs were generated in vitro (Nakahara S et al., Cancer Res 2003, 63(14): 4112-8). Specifically, peripheral-blood mononuclear cells isolated from healthy volunteers (HLA-A*3303-positive) with the Ficoll-Paque plus solution (Pharmacia) were separated by attaching to plastic tissue culture dishes (Becton Dickinson) and concentrated as a monocyte fraction. The monocyte-concentrated population was cultured in the presence of 1000 IU/ml granulocyte macrophage colony-stimulating factor (R&D System) and 1000 IU/ml interleukin(IL)-4 (R&D System) in an AIM-V medium (Invitrogen) containing 2% heat-inactivated autologous serum (AS). After seven days of culturing, the cytokine-induced DCs were pulsed with 20 micro-g/ml each of the synthesized peptides in an AIM-V medium at 37 degrees C. for three hours in the presence of 3 micro-g/ml beta 2-microglobulin. The generated cells appeared to express on their cell surface DC-associated molecules such as CD80, CD83, CD86 and HLA class II (data not shown). Next, these peptide-pulsed DCs were inactivated by X-ray irradiation (20 Gy), and mixed in a 1:20 ratio with autologous CD8^+ T cells obtained by positive selection using the CD8 Positive Isolation Kit (Dynal). These culture products were seeded in a 48-well plate (Corning). Each well was made to contain 1.5×10^4 peptide-pulsed DCs, 3×10^5 CD8^+ T cells and 10 ng/ml IL-7 (R&D System) in 0.5 ml of the AIM-V/2% AS medium. Three days later, these culture products were added with a final concentration of 20 IU/ml IL-2 (CHIRON). On day 7 and day 14, T cells were further stimulated with peptide-pulsed autologous DCs. The DCs were prepared every time by the same method as above. On day 21, after the third peptide stimulation, CTLs were examined against the peptide-pulsed C1R-A33 cell by a human interferon (IFN)-gamma enzyme-linked immunospot (ELISPOT) assay (Tanaka H et al., Br J Cancer 2001, 84(1): 94-9; Umano Y et. al., Br J Cancer 2001, 84(8): 1052-7; Uchida N et al., Clin Cancer Res 2004, 10(24): 8577-86; Suda T et al., Cancer Sci 2006, 97(5): 411-9; Watanabe T et al., Cancer Sci 2005, 96(8): 498-506).
Specifically, peptide-pulsed C1R-A33 (1×10^4 cells/well) was prepared as the stimulator cell. The induced CTLs, i.e., CTL lines and CTL clones, were used as the responder cell. The IFN-gamma ELISPOT assay and IFN-gamma ELISA were performed according to the manufacturer's manual.

peptide-pulsed C1R-A11 = test: In vitro CTL induction, IFN-gamma ELISPOT assay (HLA-A*1101); format: cell-based, human; conditions: CTLs induced with peptide-pulsed DCs from HLA-A*1101-positive volunteers; day 21; vs peptide-pulsed C1R-A11, compared with unpulsed control
Outline: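 CD8+ T cells from HLA-A*1101-positive donors were stimulated three times (days 0, 7, 14) with irradiated autologous monocyte-derived DCs pulsed with 20 μg/ml peptide, in the presence of IL-7 and IL-2. On day 21, […] were tested by IFN-gamma ELISPOT against peptide-pulsed C1R-A11 stimulators at 1×10^4 cells/well.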

Sequence | peptide-specific CTL activity (IFN-gamma production), ELISPOT (peptide-pulsed C1R-A33) | peptide-specific CTL activity (IFN-gamma production), ELISPOT (peptide-pulsed C1R-A11)
ILAHNNFVGR (a peptide derived from KOC1) [SEQ ID NO: 52] | potent IFN-gamma production | –
TQFVGAIIGK (a peptide derived from KOC1) [SEQ ID NO: 30] | – | potent IFN-gamma production
